Among the data in DBAASP are MIC values, retold here.

Molecules are shown by their SMILES. In brackets after ≈: the same amount, converted by molar mass. Several values for one entry are separate records, joined by “and”; a condition that tells them apart may be missing. Equal entries are not always repeated.

Test systems include Staphylococcus simulans; Micrococcus luteus; Acinetobacter baumannii; Escherichia coli D21; Spiroplasma citri R8A2; Serratia rubidaea X01; Escherichia coli D31; Escherichia coli 45849; Escherichia coli BL21AI.
Assay in all cases: ≥ marks a high value that may be exact or a test limit, other limits are often not marked, values filed in µg/mL are converted to µM
The subject of test [1] is Pseudomonas aeruginosa ATCC 27853.
Test [2] has as its system Acinetobacter baumannii ATCC 19606.
Test [3] concerns Staphylococcus aureus II ATCC 6538P.
Test [4] concerns Staphylococcus epidermidis LT1324.
The subject of test [5] is Escherichia coli ATCC 25922.
In test [6] the test system is Spiroplasma floricola BNR 1.
Test [7] relates to Acholeplasma laidlawii A-EF22.
Test [8] concerns Mycoplasma mycoides ssp. mycoides SC KH3J.
Test [9] has as its system Spiroplasma melliferum BC3.
For test [10], the system named is Klebsiella pneumoniae 08040724.
For test [11], the system named is Pseudomonas aeruginosa CGMCC 1.50.
Test [12] relates to Enterococcus faecalis 981.
Test [13] relates to Rhodococcus rhodochrous X15.
Test [14] has as its system Staphylococcus carnosus KHS.
The test system of test [15] is Bacillus licheniformis X39.
The test system of test [16] is Candida albicans ATCC 10231.
The test system of test [17] is Staphylococcus aureus ATCC 25923.
In test [18] the test system is Pseudomonas aeruginosa 11053.
Test [19] concerns Psychrobacter faecalis X29.
Test [20] relates to Proteus mirabilis ATCC 25933.
The subject of test [21] is Staphylococcus epidermidis RP62A.
Test [22] concerns Candida albicans ATCC 90028.
Test [23] concerns Staphylococcus aureus T7/20.
Test [24] concerns Klebsiella pneumoniae KK3 9904.
In test [25] the test system is Staphylococcus aureus NCTC 8325.
In test [26] the test system is Enterobacter cloacae HNTCC 53001.
In test [27] the test system is Enterococcus faecalis ATCC 29212.
The subject of test [28] is Agrobacterium tumefaciens ATCC 15955.
The test system of test [29] is Klebsiella pneumoniae 123132.
Test [30] deals with Salmonella enterica subsp. enterica serovar Typhi S5.
Test [31] has as its system Salmonella enterica subsp. enterica serovar Typhimurium ATCC 700408.
Test [32] has as its system Klebsiella pneumoniae K6 ATCC 700603.
The subject of test [33] is Micrococcus luteus ATCC 10240.

Consider `CC(C)C[C@H](NC(=O)[C@H](CC(C)C)NC(=O)[C@H](CCCCN)NC(=O)[C@H](CC(C)C)NC(=O)[C@H](CC(C)C)NC(=O)[C@H](CCCCN)NC(=O)[C@H](CCCCN)NC(=O)[C@H](CC(C)C)NC(=O)[C@H](CC(C)C)NC(=O)[C@H](CCCCN)NC(=O)[C@H](CCCCN)NC(=O)[C@H](CC(C)C)NC(=O)[C@H](CC(C)C)NC(=O)[C@H](CCCCN)NC(=O)[C@@H](N)CC(C)C)C(N)=O` [LKLLKKLLKKLLKLL], for which the minimal inhibitory concentration (MIC) was 24.9 µM and 25 µM in [1]; 2 µM (≈ 3.61 µg/mL) in the test with Staphylococcus simulans; 2 µM (≈ 3.61 µg/mL) against Micrococcus luteus; 1 µM (≈ 1.8 µg/mL) in [2]; 6.2 µM (≈ 11.2 µg/mL) with Acinetobacter baumannii; 3 µM (≈ 5.41 µg/mL) in test [3]. Moreover, the MIC in [4] was 4 µM (≈ 7.22 µg/mL); in the test with Escherichia coli D21 it was 13 µM (≈ 23.5 µg/mL); in test [5], 13 µM (≈ 23.5 µg/mL).
Consider `CC(C)C[C@H](NC(=O)[C@H](CCCCN)NC(=O)[C@H](CC(C)C)NC(=O)[C@H](CC(C)C)NC(=O)[C@H](CCCCN)NC(=O)[C@H](CC(C)C)NC(=O)[C@H](CC(C)C)NC(=O)[C@H](CCCCN)NC(=O)[C@H](CC(C)C)NC(=O)[C@H](CC(C)C)NC(=O)[C@H](CCCCN)NC(=O)[C@H](CC(C)C)NC(=O)[C@H](CC(C)C)NC(=O)[C@@H](N)CCCCN)C(=O)N[C@@H](Cc1c[nH]c2ccccc12)C(=O)N[C@@H](CCCCN)C(=O)O` [KLLKLLKLLKLLKLWK], for which the MIC in [6] was found to be 6.25 µM (≈ 12.4 µg/mL); in test [7] it was 0.78 µM (≈ 1.55 µg/mL); in [8] it was 12.5 µM (≈ 24.9 µg/mL); in the test on Spiroplasma citri R8A2 it was 6.25 µM (≈ 12.4 µg/mL); in test [9] it was 6.25 µM (≈ 12.4 µg/mL).
Turning to `CC[C@H](C)[C@H](NC(=O)[C@H](CCCCN)NC(=O)[C@@H]1CCCN1C(=O)[C@H](CC(C)C)NC(=O)[C@H](Cc1ccccc1)NC(=O)[C@H](CC(N)=O)NC(=O)[C@H](C)NC(=O)[C@H](C)NC(=O)[C@H](CC(C)C)NC(=O)CNC(=O)[C@H](C)NC(=O)[C@H](CC(C)C)NC(=O)[C@H](CCSC)NC(=O)[C@@H]1CCCN1C(=O)[C@H](CC(C)C)NC(=O)[C@@H](N)Cc1ccccc1)C(=O)N[C@H](C(=O)N[C@H]1CSSC[C@@H](C(=O)O)NC(=O)[C@H](CCCCN)NC(=O)[C@H](CCCCN)NC(=O)[C@H]([C@@H](C)O)NC(=O)[C@H]([C@@H](C)CC)NC(=O)[C@H](CCCCN)NC1=O)C(C)C` [FLPMLAGLAANFLPKIVCKITKKC], the MIC is at least 150 µM in test [10]; at least 75 µM in test [11]; 9 µM (≈ 23.6 µg/mL) in test [12]; 4.6 µM (≈ 12 µg/mL) in the test on Serratia rubidaea X01; 0.6 µM (≈ 1.57 µg/mL) in test [13]; 1.2 µM (≈ 3.14 µg/mL) in test [14]. Further, the minimum inhibitory concentration (MIC) in [15] was 2.3 µM (≈ 6.02 µg/mL); in test [5] it was 75 µM (≈ 196 µg/mL); in test [16], 37.5 µM (≈ 98.2 µg/mL); in test [17] it was 9 µM (≈ 23.6 µg/mL); in test [18], at least 75 µM; in test [19], 9 µM (≈ 23.6 µg/mL).
Take `CC[C@H](C)[C@H](NC(=O)[C@H](CCCCN)NC(=O)[C@H](CO)NC(=O)[C@@H](NC(=O)[C@H](CC(C)C)NC(=O)[C@H](CO)NC(=O)[C@@H]1CCCN1C(=O)[C@H](CC(C)C)NC(=O)[C@H](C)NC(=O)[C@H](CO)NC(=O)[C@H](C)NC(=O)[C@H](CC(C)C)NC(=O)[C@H](C)NC(=O)CNC(=O)[C@@H](NC(=O)[C@@H](NC(=O)[C@H](CO)NC(=O)CNC(=O)[C@H](CC(C)C)NC(=O)[C@@H](N)Cc1ccccc1)[C@@H](C)CC)C(C)C)[C@@H](C)CC)C(=O)N[C@@H](CCCN=C(N)N)C(=O)N[C@@H](CC(N)=O)C(N)=O` [FLGSIVGALASALPSLISKIRN]: the minimum inhibitory concentration (MIC) was 50 µM (≈ 111 µg/mL) in test [1]; at least 100 µM in test [20]; 12.5 µM (≈ 27.8 µg/mL) in [21]; at least 50 µM in test [22]; 25 µM (≈ 55.7 µg/mL) in test [23]; at least 100 µM in test [24]. The MIC in test [25] is 25 µM (≈ 55.7 µg/mL); in test [26], at least 50 µM; in test [27], 50 µM (≈ 111 µg/mL); in [5] it was 25 µM (≈ 55.7 µg/mL).
`CC[C@H](C)[C@H](NC(=O)[C@H](Cc1ccc(O)cc1)NC(=O)[C@@H](NC(=O)[C@@H]1CCCN1C(=O)[C@H](CCCN=C(N)N)NC(=O)[C@H](CC(N)=O)NC(=O)[C@H](CC(N)=O)NC(=O)[C@@H](N)CCCCN)C(C)C)C(=O)N1CCC[C@H]1C(=O)N[C@@H](CCCCN)C(=O)N1CCC[C@H]1C(=O)N[C@@H](CCCN=C(N)N)C(=O)N1CCC[C@H]1C(=O)N1CCC[C@H]1C(=O)N[C@@H](Cc1cnc[nH]1)C(=O)N1CCC[C@H]1C(=O)N[C@@H](CCCN=C(N)N)C(=O)N[C@@H](CC(C)C)C(N)=O` [KNNRPVYIPKPRPPHPRL]: the minimum inhibitory concentration (MIC) in [28] is 0.298 µM (≈ 0.65 µg/mL); in the test on Escherichia coli D31, 3.67 µM (≈ 8 µg/mL); in [29] it was 1.84 µM (≈ 4 µg/mL); in test [30] it was 0.459 µM (≈ 1 µg/mL); in test [31] it was 0.162 µM (≈ 0.353 µg/mL); in test [32], 3.67 µM (≈ 8 µg/mL). In addition, the minimal inhibitory concentration (MIC) in test [33] worked out at 0.634 µM (≈ 1.38 µg/mL); in the test on Escherichia coli 45849, 0.115 µM (≈ 0.25 µg/mL); against Escherichia coli BL21AI, 1.27 µM (≈ 2.76 µg/mL).

Broadly, the MIC is the smallest concentration in the dilution series that meets the test's criterion for growth inhibition. The low end stands for a more susceptible organism, the high end for a less susceptible organism.
